Data taken from patent publication US12409171B2, “Pharmaceutically active pyrazolo-pyridone modulators of DCN1/2-mediated cullin neddylation” (UNIVERSITY OF KENTUCKY RESEARCH FOUNDATION, priority 2019, dated 2025).

Biological target: DCN1 (Homo sapiens (Human), UniProt Q96GG9)
Experiment: TR-FRET binding assay (biotin-DCN1 / Ac-UBE2M12-AlexaFluor488)
Settings: mean ± SD (n); read-out: DCN1_TRFRET Mean EC50
How it was run: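 Biotinylated DCN1 binding to Ac-UBE2M12-AlexaFluor488 read by TR-FRET; assay cocktail pre-incubated 1 h at room temperature before compounds added from DMSO stocks by pin transfer. IC50 is the mean of three replicates ± SD; compounds tested in triplicate or more.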

DCN1, sequence (Q96GG9 whole entry): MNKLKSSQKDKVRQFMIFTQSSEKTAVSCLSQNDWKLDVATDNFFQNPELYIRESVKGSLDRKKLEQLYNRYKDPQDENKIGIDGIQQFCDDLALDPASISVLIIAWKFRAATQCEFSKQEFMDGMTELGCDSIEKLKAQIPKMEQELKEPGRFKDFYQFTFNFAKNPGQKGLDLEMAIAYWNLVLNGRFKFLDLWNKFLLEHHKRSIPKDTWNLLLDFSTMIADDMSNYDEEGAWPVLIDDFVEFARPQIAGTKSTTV

First: CCN1C(=O)[C@@H](NC(=O)c2cccc(C(F)(F)F)c2)[C@@H](c2ccc(F)cc2)c2c(C)nn(-c3cccc(C)c3)c21 [RG-0014035, N-[(4S,5S)-7-ethyl-4-(4-fluorophenyl)-3-methyl-1-(3-methylphenyl)-6-oxo-1H,4H,5H,6H,7H-pyrazolo[3,4-b]pyridin-5-yl]-3-(trifluoromethyl)benzamide]
Second: CCN1C(=O)[C@@H](NC(=O)c2cccc(C(F)(F)F)c2)[C@@H](c2ccc(F)cc2)c2c(C)nn(-c3ccc(C)cc3)c21 [RG-0014036, N-[(4S,5S)-7-ethyl-4-(4-fluorophenyl)-3-methyl-1-(4-methylphenyl)-6-oxo-1H,4H,5H,6H,7H-pyrazolo[3,4-b]pyridin-5-yl]-3-(trifluoromethyl)benzamide]
The EC50 of the first is 8.3-fold lower: 388 ± 38.5 nM for the first, 3210 ± 156 nM for the second.

Going from `CCN1C(=O)[C@@H](NC(=O)c2cccc(C)c2)[C@@H](c2ccc(F)cc2)c2c(C)nn(C(C)C(F)(F)F)c21` (stereo partly drawn) [RG-0008879, N-[(4S,5S)-7-ethyl-4-(4-fluorophenyl)-3-methyl-6-oxo-1-(1,1,1-trifluoropropan-2-yl)-1H,4H,5H,6H,7H-pyrazolo[3,4-b]pyridin-5-yl]-3-methylbenzamide] to `CCN1C(=O)[C@@H](NC(=O)c2cccc(C)c2)[C@@H](c2ccc(F)cc2)c2c(C)nn(CC(F)(F)F)c21` [RG-0008871, N-[(4S,5S)-7-ethyl-4-(4-fluorophenyl)-3-methyl-6-oxo-1-(2,2,2-trifluoroethyl)-1H,4H,5H,6H,7H-pyrazolo[3,4-b]pyridin-5-yl]-3-methylbenzamide], the EC50 falls from 7260 ± 1090 nM to 729 ± 90.1 nM (10-fold).

Going from `CC/C=C/C(=O)N[C@@H]1C(=O)N(CC)c2c(c(C)nn2-c2ccccc2)[C@@H]1c1ccc(F)cc1` [RG-0014157, (2E)-N-[(4S,5S)-7-ethyl-4-(4-fluorophenyl)-3-methyl-6-oxo-1-phenyl-1H,4H,5H,6H,7H-pyrazolo[3,4-b]pyridin-5-yl]pent-2-enamide] to `CCN1C(=O)[C@@H](NC(=O)c2cc(C)cs2)[C@@H](c2ccc(F)cc2)c2c(C)nn(-c3ccccc3)c21` [RG-0014044, N-[(4S,5S)-7-ethyl-4-(4-fluorophenyl)-3-methyl-6-oxo-1-phenyl-1H,4H,5H,6H,7H-pyrazolo[3,4-b]pyridin-5-yl]-4-methylthiophene-2-carboxamide], the EC50 falls from > 30700 nM to 785 ± 79.6 nM. The second is the more potent here.

First: CCN1C(=O)[C@@H](N(CC)C(=O)c2cccc(C)c2)[C@@H](c2ccc(F)cc2)c2c(C)nn(-c3ccccc3)c21 [RG-0009505, N-ethyl-N-[(4S,5S)-7-ethyl-4-(4-fluorophenyl)-3-methyl-6-oxo-1-phenyl-1H,4H,5H,6H,7H-pyrazolo[3,4-b]pyridin-5-yl]-3-methylbenzamide]
Second: COCN1C(=O)[C@@H](NC(=O)c2cccc(C)c2)[C@@H](c2ccc(F)cc2)c2c(C)nn(-c3ccccc3)c21 [RG-0008859, N-[(4S,5S)-4-(4-fluorophenyl)-7-(methoxymethyl)-3-methyl-6-oxo-1-phenyl-1H,4H,5H,6H,7H-pyrazolo[3,4-b]pyridin-5-yl]-3-methylbenzamide]
The EC50 of the first is 5.3-fold higher: 2620 ± 404 nM for the first, 491 ± 25.5 nM for the second.

`CCN1C(=O)[C@@H](NC(=O)c2cccc(C(C)C)c2)[C@@H](c2ccc(F)cc2)c2c(C)nn(-c3ccccc3)c21` [RG-0014166, N-[(4S,5S)-7-ethyl-4-(4-fluorophenyl)-3-methyl-6-oxo-1-phenyl-1H,4H,5H,6H,7H-pyrazolo[3,4-b]pyridin-5-yl]-3-(propan-2-yl)benzamide] and `CCN1C(=O)[C@@H](NC(=O)c2cccc(Br)c2)[C@@H](c2ccc(F)cc2)c2c(C)nn(-c3ccccc3)c21` [RG-0013061, 3-bromo-N-[(4S,5S)-7-ethyl-4-(4-fluorophenyl)-3-methyl-6-oxo-1-phenyl-1H,4H,5H,6H,7H-pyrazolo[3,4-b]pyridin-5-yl]benzamide] are within error of each other in EC50: 473 ± 70.7 nM for the first, 485 ± 41.1 nM for the second.

First: C=CCN1C(=O)[C@@H](NC(=O)c2cccc(C(F)(F)F)c2)[C@@H](c2ccc(F)cc2)c2c(C)nn(-c3ccccc3)c21 [RG-0014007, N-[(4S,5S)-4-(4-fluorophenyl)-3-methyl-6-oxo-1-phenyl-7-(prop-2-en-1-yl)-1H,4H,5H,6H,7H-pyrazolo[3,4-b]pyridin-5-yl]-3-(trifluoromethyl)benzamide]
Second: Cc1nn(-c2ccccc2)c2c1[C@H](c1ccc(F)cc1)[C@H](NC(=O)c1cccc(C(F)(F)F)c1)C(=O)N2CO [RG-0013981, N-[(4S,5S)-4-(4-fluorophenyl)-7-(hydroxymethyl)-3-methyl-6-oxo-1-phenyl-1H,4H,5H,6H,7H-pyrazolo[3,4-b]pyridin-5-yl]-3-(trifluoromethyl)benzamide]
The EC50 of the first is lower: 1550 ± 157 nM for the first, > 36500 nM for the second.

`CCN1C(=O)[C@@H](NC(=O)c2cccc(C(F)(F)F)c2)[C@@H](c2ccc(F)cc2)c2c(CNC)nn(-c3ccccc3)c21` [RG-0014056, N-[(4S,5S)-7-ethyl-4-(4-fluorophenyl)-3-[(methylamino)methyl]-6-oxo-1-phenyl-1H,4H,5H,6H,7H-pyrazolo[3,4-b]pyridin-5-yl]-3-(trifluoromethyl)benzamide] and `CCN1C(=O)[C@@H](NC(=O)c2cccc(C(F)(F)F)c2)[C@@H](c2ccc(F)cc2)c2c(CNS(C)(=O)=O)nn(-c3ccccc3)c21` [RG-0014140, N-[(4S,5S)-7-ethyl-4-(4-fluorophenyl)-3-(methanesulfonamidomethyl)-6-oxo-1-phenyl-1H,4H,5H,6H,7H-pyrazolo[3,4-b]pyridin-5-yl]-3-(trifluoromethyl)benzamide] are within error of each other in EC50: 118 ± 9.03 nM for the first, 94.7 ± 19.7 nM for the second.

`Cc1cccc(C(=O)N[C@@H]2C(=O)N(C)c3c(c(C)nn3-c3ccccc3)[C@@H]2c2ccc(F)cc2)c1` [RG-0005655, N-[(4S,5S)-4-(4-fluorophenyl)-3,7-dimethyl-6-oxo-1-phenyl-1H,4H,5H,6H,7H-pyrazolo[3,4-b]pyridin-5-yl]-3-methylbenzamide] and `CCN1C(=O)[C@@H](NC(=O)c2cccc(I)c2)[C@@H](c2ccc(F)cc2)c2c(C)nn(-c3ccccc3)c21` [RG-0013060, N-[(4S,5S)-7-ethyl-4-(4-fluorophenyl)-3-methyl-6-oxo-1-phenyl-1H,4H,5H,6H,7H-pyrazolo[3,4-b]pyridin-5-yl]-3-iodobenzamide] are within error of each other in EC50: 446 ± 68.1 nM for the first, 461 ± 29.4 nM for the second.

Compared with `Cc1nn(-c2ccccc2)c2c1[C@H](c1ccc(F)cc1)[C@H](NC(=O)c1cccc(C(F)(F)F)c1)C(=O)N2CCO[Si](C)(C)C(C)(C)C` [RG-0014164, N-[(4S,5S)-7-{2-[(tert-butyldimethylsilyl)oxy]ethyl}-4-(4-fluorophenyl)-3-methyl-6-oxo-1-phenyl-1H,4H,5H,6H,7H-pyrazolo[3,4-b]pyridin-5-yl]-3-(trifluoromethyl)benzamide], `CCN1C(=O)[C@@H](NC(=O)c2cccc(C(F)(F)F)c2)[C@@H](c2ccc(F)c(OC)c2)c2c(C)nn(-c3ccccc3)c21` [RG-0013996, N-[(4S,5S)-7-ethyl-4-(4-fluoro-3-methoxyphenyl)-3-methyl-6-oxo-1-phenyl-1H,4H,5H,6H,7H-pyrazolo[3,4-b]pyridin-5-yl]-3-(trifluoromethyl)benzamide] is lower in EC50: > 36500 nM for the first, 1270 ± 47 nM for the second. The second is the more potent here.

First: CCCn1nc(C)c2c1N(CC)C(=O)[C@@H](NC(=O)c1cccc(C)c1)[C@H]2c1ccc(F)cc1 [RG-0008665, N-[(4S,5S)-7-ethyl-4-(4-fluorophenyl)-3-methyl-6-oxo-1-propyl-1H,4H,5H,6H,7H-pyrazolo[3,4-b]pyridin-5-yl]-3-methylbenzamide]
Second: CCN1C(=O)[C@@H](NC(=O)c2cccc(C)c2)[C@@H](c2ccc(F)cc2)c2c(C)nn(-c3ccc(F)cc3)c21 [RG-0008866, N-[(4S,5S)-7-ethyl-1,4-bis(4-fluorophenyl)-3-methyl-6-oxo-1H,4H,5H,6H,7H-pyrazolo[3,4-b]pyridin-5-yl]-3-methylbenzamide]
The EC50 of the first is 2-fold lower: 244 ± 20.8 nM for the first, 489 ± 18.5 nM for the second. The first is the more potent here.

Compared with `CCN1C(=O)[C@@H](NC(=O)c2ccc3c(ccn3C)c2)[C@@H](c2ccc(F)cc2)c2c(C)nn(-c3ccccc3)c21` [RG-0014151, N-[(4S,5S)-7-ethyl-4-(4-fluorophenyl)-3-methyl-6-oxo-1-phenyl-1H,4H,5H,6H,7H-pyrazolo[3,4-b]pyridin-5-yl]-1-methyl-1H-indole-5-carboxamide], `CCN1C(=O)[C@@H](NC(=O)c2ccc(F)c(C)c2)[C@@H](c2ccc(F)cc2)c2c(C)nn(-c3ccccc3)c21` [RG-0014168, N-[(4S,5S)-7-ethyl-4-(4-fluorophenyl)-3-methyl-6-oxo-1-phenyl-1H,4H,5H,6H,7H-pyrazolo[3,4-b]pyridin-5-yl]-4-fluoro-3-methylbenzamide] is 1.9-fold lower in EC50: 3230 ± 806 nM for the first, 1690 ± 115 nM for the second. The second is the more potent here.

`C=CC(=O)NCc1nn(-c2ccccc2)c2c1[C@H](c1ccc(F)cc1)[C@H](NC(=O)c1cccc(C)c1)C(=O)N2CC` [RG-0013063, N-[(4S,5S)-7-ethyl-4-(4-fluorophenyl)-6-oxo-1-phenyl-3-[(prop-2-enamido)methyl]-1H,4H,5H,6H,7H-pyrazolo[3,4-b]pyridin-5-yl]-3-methylbenzamide] and `CCN1C(=O)[C@@H](NC(=O)c2cccc(C(F)(F)F)c2)[C@@H](c2ccc(F)cc2)c2c(CNCCN)nn(-c3ccccc3)c21` [RG-0014149, N-[(4S,5S)-3-{[(2-aminoethyl)amino]methyl}-7-ethyl-4-(4-fluorophenyl)-6-oxo-1-phenyl-1H,4H,5H,6H,7H-pyrazolo[3,4-b]pyridin-5-yl]-3-(trifluoromethyl)benzamide] are within 1.5-fold of each other in EC50: 96.8 ± 7.21 nM for the first, 126 ± 12.1 nM for the second.

First: CCN1C(=O)[C@@H](NC(=O)c2cccc(C)c2)[C@@H](c2ccc(F)nc2)c2c(C)nn(-c3ccccc3)c21 [RG-0009513, N-[(4S,5S)-7-ethyl-4-(6-fluoropyridin-3-yl)-3-methyl-6-oxo-1-phenyl-1H,4H,5H,6H,7H-pyrazolo[3,4-b]pyridin-5-yl]-3-methylbenzamide]
Second: CCN1C(=O)[C@@H](NC(=O)c2cccc(C(F)(F)F)c2)[C@@H](c2ccc(F)cc2)c2c(CNC(=O)CCCC[C@@H]3SC[C@@H]4NC(=O)N[C@@H]43)nn(-c3ccccc3)c21 [RG-0014155, N-[(4S,5S)-3-({5-[(3aS,4S,6aR)-2-oxo-hexahydro-1H-thieno[3,4-d]imidazol-4-yl]pentanamido}methyl)-7-ethyl-4-(4-fluorophenyl)-6-oxo-1-phenyl-1H,4H,5H,6H,7H-pyrazolo[3,4-b]pyridin-5-yl]-3-(trifluoromethyl)benzamide]
The EC50 of the first is 2.1-fold higher: 255 ± 28.2 nM for the first, 123 ± 22.5 nM for the second.
